Measured values reported in ChEMBL document CHEMBL5137030 (Eur J Med Chem, 2022).
Active and inactive are the calls of the source. The rule behind the calls is not given here.

Legend:
[1] = tested on: Human alphaherpesvirus 2; assay: Antiviral activity against HSV-2 333vhsB infected in African green monkey Vero cells assessed as inhibition of viral replication by measuring reduction in virus-induced cytopathic effect at 50 uM incubated for 20 hrs by colorimetric analysis; format: functional, organism-based
[2] = tested on: Human alphaherpesvirus 2; assay: (§1) Antiviral activity against HSV-2 infected in African green monkey Vero cells assessed as inhibition of viral replication by measuring log suppression of virus-induced cytopathic effect at 1 uM incubated for 1 hr followed by washing with PBS and subsequent treatment with compound for 24 hrs by plaque assay; format: functional; conditions: time 25 hrs
[3] = tested on: Human alphaherpesvirus 2; assay: as §1, with “at 5” for “at 1”; format: functional; conditions: time 25 hrs
[4] = Half life in mouse liver microsomes at 2 uM in presence of NADPH by LC/MS/MS analysis; format: ADME, Microsome
[5] = Cytotoxicity against human HepDES19 cells assessed as reduction in cell viability incubated for 72 hrs by MTS assay; format: toxicity, cell-based; conditions: hepdes19, 72 h
[6] = Apparent permeability of the compound across apical to basolateral side in human Caco-2 cells at 10 uM incubated for 2 hrs; format: ADME, cell-based; conditions: caco-2, 2 h
[7] = Half life in human liver microsomes at 2 uM in presence of NADPH by LC/MS/MS analysis; format: ADME, Microsome
[8] = tested on: Human alphaherpesvirus 2; assay: Antiviral activity against HSV-2 infected in African green monkey Vero cells assessed as inhibition of viral replication incubated for 1 hr followed by washing with PBS and subsequent treatment with compound for 24 hrs by plaque reduction assay; format: functional, organism-based; conditions: Human alphaherpesvirus 2, Vero
[9] = tested on: Human alphaherpesvirus 1; assay: as §1, with “against HSV-1” for “against HSV-2”, “at 5” for “at 1”; format: functional; conditions: time 25 hrs
[10] = tested on: Human alphaherpesvirus 1; assay: as §1, with “HSV-1” for “HSV-2”; format: functional; conditions: time 25 hrs
[11] = Oral bioavailability in BALB/c mouse at 3 mg/kg by LC/MS/MS analysis; format: ADME, organism-based; conditions: in vivo
[12] = Half-life in BALB/c mouse at 3 mg/kg, po and 1 mg/kg, iv by LC/MS/MS analysis; format: ADME, organism-based; conditions: in vivo
[13] = tested on: Human alphaherpesvirus 1; assay: Antiviral activity against HSV-1 infected in African green monkey Vero cells assessed as inhibition of viral replication incubated for 1 hr followed by washing with PBS and subsequent treatment with compound for 24 hrs by plaque reduction assay; format: functional, organism-based; conditions: Human alphaherpesvirus 1, Vero

SMILES	Activity [1]	log(activity) [2]	log(activity) [3]	t1/2 [4] [min]	CC50 [5] [nM]	Papp [6]	t1/2 [7] [min]	EC50 [8] [nM]	log(activity) [9]	log(activity) [10]	bioavailability [11] [%]	t1/2 [12] [min]	EC50 [13] [nM]
O=c1c2ccccc2cc(C2CCCCC2)n1O	Active	1.01	4.48	–	–	–	–	–	–	–	–	–	–
Cc1cc(Cc2ccccc2-c2ccccc2)n(O)c(=O)c1	Active	3.17	4.49	< 5	14000	2.03 10^-7 cm/s	< 5	160	–	–	–	–	–
O=c1ccc(-c2ccccc2)cn1O [1-HYDROXY-5-PHENYLPYRIDIN-2(1H)-ONE]	Active	-0.03	0	–	–	–	–	–	–	–	–	–	–
O=c1cc(-c2ccccc2)cc(CC2CCCCC2)n1O	Active	4.84	5.29	< 5	20000	2.75 10^-6 cm/s	< 5	390	–	–	–	–	–
O=c1cc(Cc2ccccc2)cc(Cc2ccccc2)n1O	Active	0.29	4.7	–	–	–	–	–	–	–	–	–	–
Cc1cc(Cc2cccc(Cl)c2)n(O)c(=O)c1	Active	1.82	4	–	–	–	–	–	–	–	–	–	–
O=c1c2ccccc2cc(-c2ccccc2)n1O	Active	0.01	4.04	–	–	–	–	–	–	–	–	–	–
Cc1cc(Cc2ccc(OCc3ccccc3)cc2)n(O)c(=O)c1	Active	4.1	4.25	–	19000	9.42 10^-7 cm/s	–	130	5.18	4.74	–	–	–
Cc1cc(Cc2cccc(OCc3ccccc3)c2)n(O)c(=O)c1	Active	4.04	4.4	< 5	22000	1.37 10^-6 cm/s	< 5	220	–	–	–	–	–
O=c1cc(-c2ccccc2)ccn1O	Active	0.05	0.02	–	–	–	–	–	–	–	–	–	–
O=c1cc(Cc2ccccc2)ccn1O	Active	0.4	0.03	–	–	–	–	–	–	–	–	–	–
O=c1cc(-c2ccccc2)cc(Cc2ccccc2)n1O	Active	2.72	5.29	–	18000	–	–	410	–	–	–	–	–
O=c1cc(/C=C/c2ccccc2)cc(Cc2ccccc2)n1O	Active	1.46	4.62	–	–	–	–	–	–	–	–	–	–
Cc1cc(Cc2ccc(Cl)cc2)n(O)c(=O)c1	Active	3.16	4.4	–	26000	–	–	310	4.27	2.44	10	< 60	160
COc1ccccc1Cc1cc(C)cc(=O)n1O	Active	1.02	3.9	–	–	–	–	–	–	–	–	–	–
Cc1cc(C2CCCC2)n(O)c(=O)c1	Active	0.37	2.38	–	–	–	–	–	–	–	–	–	–
COc1ccc(Cc2cc(C)cc(=O)n2O)cc1	Active	1.23	4.04	–	–	–	–	–	–	–	–	–	–
Cc1ccc(-c2cc(CC3CCCCC3)n(O)c(=O)c2)cc1	Active	0.02	0.34	–	–	–	–	–	–	–	–	–	–
Cc1cccc(-c2cc(CC3CCCCC3)n(O)c(=O)c2)c1	Active	3.26	3.95	–	16000	–	–	310	4.59	4.22	–	–	–
Cc1cc(C2CCOCC2)n(O)c(=O)c1	Active	-0.23	0.09	–	–	–	–	–	–	–	–	–	–

SMILES	Activity [1]	log(activity) [2]	log(activity) [3]	t1/2 [4] [min]	CC50 [5] [nM]	Papp [6]	t1/2 [7] [min]	EC50 [8] [nM]	log(activity) [9]	log(activity) [10]	bioavailability [11] [%]	t1/2 [12] [min]	EC50 [13] [nM]
O=c1ccc(Cc2ccccc2)cn1O	Active	0.1	-0.03	–	–	–	–	–	–	–	–	–	–
O=c1c2ccccc2cc(Cc2ccccc2)n1O	Active	0.73	4.03	–	–	–	–	–	–	–	–	–	–
Cc1cc(C2CCN(C(=O)C(C)C)CC2)n(O)c(=O)c1	Active	-0.08	0.4	–	–	–	–	–	–	–	–	–	–
Cc1cc(C2CCCCCC2)n(O)c(=O)c1	Active	4.15	5.09	8	18000	5.74 10^-6 cm/s	< 5	160	5.27	4.67	–	–	60
O=c1c2ccccc2cc(CC2CCCCC2)n1O	Active	2.68	4.77	–	49000	–	–	280	4.32	4.16	–	–	240
O=c1cc(/C=C/c2ccccc2)cc(CC2CCCCC2)n1O	Active	4.95	4.77	–	20000	–	–	270	4.42	4.33	–	–	–
Nc1nc2c(ncn2COCCO)c(=O)[nH]1 [ACYCLOVIR]	–	1.79	2.9	–	–	–	–	–	3.36	2.42	–	–	–
Cc1cc2ccccc2c(=O)n1O	Active	0.01	0.28	–	–	–	–	–	–	–	–	–	–
Cc1cc(Cc2ccc3ccccc3c2)n(O)c(=O)c1	Active	1.34	3.63	–	–	–	–	–	–	–	–	–	–
Cc1cc(C2CCC2)n(O)c(=O)c1	Active	0.26	1.45	–	–	–	–	–	–	–	–	–	–
O=c1cccc(C2CCCCC2)n1O	Active	1.23	5.01	–	22000	–	–	550	–	–	–	–	–
O=c1cccc(Cc2ccccc2)n1O	Active	0.34	2.75	–	–	–	–	–	–	–	–	–	–
Cc1cc(Cc2ccccc2Cl)n(O)c(=O)c1	Active	2.46	4.3	–	–	–	–	–	–	–	–	–	–
Cc1ccccc1-c1cc(CC2CCCCC2)n(O)c(=O)c1	Active	0.14	5.65	–	–	–	–	–	–	–	–	–	–
Cc1cc(CC2CCCCC2)n(O)c(=O)c1	Active	4.19	4.9	< 5	28000	3.14 10^-5cm/s	< 5	260	4.43	3.98	10	< 60	–
Cc1cc(Cc2cccc(-c3ccccc3)c2)n(O)c(=O)c1	Active	4.22	4.2	< 5	24000	1.09 10^-6 cm/s	< 5	390	–	–	–	–	–
O=c1cc(C2CCCCC2)ccn1O	Active	0.2	0.04	–	–	–	–	–	–	–	–	–	–
O=c1ccc(C2CCCCC2)cn1O	Active	0.67	3.62	–	–	–	–	–	–	–	–	–	–
O=c1cc(Cc2ccccc2)cc(CC2CCCCC2)n1O	Active	2.39	4.83	–	–	–	–	–	–	–	–	–	–
